Patent US20160324884A1, “TREATMENT OF DIABETES WITH PENTACYCLIC TRITERPENOID SAPONIN COMPOUNDS FROM SZECHUAN MELANDIUM ROOT” (priority 2013, published 2016)
Entries after “also recorded” stand apart in the source; their conditions may differ.

Tests used:
[1] = test system: KK^Ay mice; test: Glycemia in KK^Ay mice during treatment and after withdrawal (Example 3); format: in vivo; conditions: for descending rates of blood glucose: T2DM mice, 2 mg/kg, two weeks after subcutaneous injection
Text: (§1) 60 male KK^Ay mice (12 weeks of age, License NO. SCXK (BJ) 2009-0015, Beijing Huafukang Biology Technology Co. Ltd.) and 10 normal male C57BL/6 mice (12 weeks of age, License NO. SCXK (BJ) 2009-0015, Beijing Huafukang Biology Technology Co. Ltd.) were adaptively bred for one week, and then used in the following experiment.
(§2) 60 KK^Ay mice were adaptively bred for 1 week, and then randomly assigned into 6 groups: Model group, Compound (1) group, Compound (2) group, Compound (3) group, Compound (4) group, and metformin group, 10 mice per group. 10 normal C57BL/6 mice were used for the control group. KK^Ay mice were in a high-fat diet, and the control normal mice were in a normal control diet. The control and model groups were hypodermically injected with sterile water, the 6 medicated groups mice were subcutaneously injected with […] Wacao saponins, (Compounds (1), (2), (3) and (4)) respectively, and the positive group was administered metformin by gavage. All mice were administrated at 9 am for 2 weeks and the administration volume is 10 ml/kg BW.
(§3) Compound (1), (2), (3) and (4) were respectively dissolved into sterile water, and sterilized with filtration for Sc. to the medication groups. The metformin was dissolved into sterile water for lg. to the positive control group. Control and model groups animals were injected with sterile water (10 ml/kg BW), Sc. All the animals were treated daily at 9 am for 2 weeks (14 days).
(§4) Blood detection: Blood glucose was measured weekly. Overnight fasting glycemia level was measured with One Touch ULTRA Glucometer for the tail blood test. At the end of the experiment, blood serum was collected for measuring levels of fasting blood glucose and insulin, and the insulin sensitivity index (ISI) was calculated. At the same time, hepatic tissues and skeletal muscles of mice were taken out to determine levels of hepatic and muscle glycogen by detection kits.
Termination of the experiment After administrating mice for 2 weeks (14 days), the experiment was terminated.
This experiment is to observe the anti-hyperglycemia effects of Wacao saponins on KK^Ay mice during and after the period of drug treatment, respectively.

[2] = test system: T2DM rats; test: Fasting glycemia in T2DM model rats (high-fat emulsion + STZ, Example 5); format: in vivo, SD rats
Text: 50 male SD rats (180-200 g, License NO. SCXK (BJ) 2011-0004, Beijing SPF Experimental Animal Technology Co. Ltd.) were adaptively bred for 1 week, and then used in the pharmacological experiment.
Animals were housed individually in wood-chip-bedded plastic cages and fed a standard laboratory chow. All the animals had ad libitum access to food and water.
(§5) 50 SD rats were adaptively bred for 1 week, and then randomly assigned into 5 groups: The control group, model group, Compound (1) group, Compound (2) group and glucobay group (the positive group), 10 rats per group. All the animals were in a standard laboratory diet. Control and model group animals were hypodermically injected with sterile water, test compound treatment groups were subcutaneously injected with the Compounds (1) and (2), and the positive group was administrated glucobay solution by gavage. All the animals were administrated at 9 am for 2 weeks, and the dose volume is 10 ml/kg BW.
(§6) The Compounds (1) and (2) were dissolved into sterile water, and sterilized with filtration, Sc. Glucobay was dissolved into sterile water, lg. Animals in the control and model groups were injected with sterile water (10 ml/kg BW), Sc. All the animals were treated at 9 am for 2 weeks (14 days).
(§7) All rats except the control group were administrated intragastrically with the high-fat emulsion (10 ml/kg) and weighed the body weight weekly. After weeks of administration, rats were intraperitoneally injected with streptozotocin (STZ, dissolved in citric acid-citrate sodium solution, pH 4.2, freshly prepared and used instantly, and store away from light) (30mg/kg). 4 days later, blood glucose level in rats was measured by tail blood test. Diabetes was defined as fasting blood glucose level>11.1 mmol/Lin in this experiment.
The blood glucose level was measured before and after administration of the treatment compounds for 2 weeks, respectively. The animals were fasted overnight and tail blood samples were taken. Fasting glycemia was measured by using One Touch ULTRA Glucometer or kits.

[3] = test system: T2DM rats; test: Glycosylated serum protein (GSP) and liver and muscle glycogen in T2DM rats (Example 5); format: in vivo, SD rats; conditions: 4.0 mg/kg Sc vs glucobay 20 mg/kg lg
Text: as §5, §6
as §7, with “Diabetes was defined as fasting blood glucose level>11.1 mmol/Lin in this experiment.” left out

[4] = test system: KK^Ay mice; test: Hepatic and muscle glycogen in KK^Ay mice (Example 3); format: in vivo; conditions: 2.0 mg/kg Sc, after 2 weeks, vs model group
Text: as §2
(§8) The body weight, food and water intake of each mouse was measured and recorded weekly throughout the course of the experiment. At the end of the experiment, collected the blood and separated serum, fasting blood glucose, insulin levels and insulin sensitivity index (ISI) were measured or calculated in each group. Liver, skeletal muscles of mice in each group were taken and weighed for detecting glycogen levels of the hepatic and muscles after mice being killed.
as §3, §4

[5] = test system: KK^Ay mice; test: Effects of Wacao saponins on glycemia in KK^Ay T2DM mice (Example 2); format: in vivo; conditions: for glycemia (fasting tail blood glucose), hypoglycemic activity: after 1 week; for anti-hyperglycemia effect, compounds compared with each other: 2.0 mg/kg BW Sc, 2 weeks, ranking
Text: as §1, with “80” for “60”, “10 male” for “10”, “normal” for “normal male”, “pharmacological” for “following”
The animals were housed individually in wood-chip-bedded plastic cages. Germ-free and high-fat diets (Beijing Huafukang Biology Technology Co. Ltd.) were used to feed the KK^Ay mice, and the standard laboratory chows were used to feed normal C57BL/6 mice. All the animals had free access to food and water.
80 KK^Ay mice were adaptively bred for 1 week, and then randomly assigned into 8 groups: Model group, Compound (1) group, Compound (2) group, Compound (3) group, Compound (4) group, Compound (7) group, Compound (8) group and metformin group, 10 mice per group. 10 normal C57BL/6 mice were used as the control group. KK^Ay mice were fed with the high-fat diet, and the control group was fed with the normal control diet. The control and model groups were hypodermically injected with sterile water, 6 medicated groups were hypodermically injected with 6 kinds of Wacao saponins, the Compounds (1), (2), (3), (4), (7) and (8), and the positive group (metformin group) was irrigated per oral. All groups were administrated at 9 am for 2 weeks. The administrating volume is 10 ml/kg BW and the administration dosage is shown in Table3.
All mice of the fasting tail blood glucose level were measured weekly using One Touch ULTRA Glucometer (Life Scan Johnson and Johnson, USA).
Each compound of Wacao saponins was dissolved into sterile water and sterilized with filtration for Sc. The metformin was dissolved into sterile water for lg. The control and model group mice were injected with sterile water, Sc. All the animals were treated at 9 am for 2 weeks.
Overnight fasting tail blood glucose level was measured weekly using One Touch ULTRA Glucometer and measured for twice.
Each group was administrated for 2 weeks (14 days) and then the experiment was terminated.
Results are expressed as means±SD. Statistical analysis were analyzed by using SPSS 10.0 software. Data were evaluated with analysis of variance.

[6] = test system: normal ICR mice; test: Glycemia in normal ICR mice (Example 4); format: in vivo; conditions: 2.0 mg/kg Sc, after 2 weeks, vs control group
Text: 40 male ICR mice (20-22g, License NO. SCXK (BJ) 2011-0004, Beijing SPF Experimental Animal Technology Co. Ltd.) were adaptively bred for one week, and then used in the following experiment.
Animals were housed individually in wood-chip-bedded plastic cages and fed the standard laboratory chow. All the animals had ad libitum access to food and water.
40 ICR mice were adaptively bred for 1 week, and then randomly assigned into 4 groups: Model, Compound (1), Compound (2) and metformin group, 10 mice per group. All the animals were fed with normal food. Mice in the control group were hypodermically injected with sterile water. The treated groups were subcutaneously injected with Compounds (1) and (2), respectively. And the positive group was administrated metformin by gavage. All the animals were administrated at 9 am for 2 weeks, and the dose volume is 10 ml/kg BW.
Compound (1) and (2) were respectively dissolved into sterile water, and sterilized with filtration for Sc. The metformin was dissolved into sterile water for lg. to the positive control group. Mice in the control group were injected with sterile water (10 ml/kg BW), Sc. All the animals were treated at 9 am for 2 weeks (14 days).
Blood detection: Blood glucose was measured weekly. Overnight fasting glycemia was measured by One Touch ULTRA Glucometer (LifeScan Johnson and Johnson, USA) for the tail blood test.
End of the experiment: After mice being administrated for 2 weeks (14 days), the experiment was terminated.

[7] = test system: KK^Ay mice; test: Body weight, food and water intake in KK^Ay mice (Example 3); format: in vivo; conditions: after 1 week, compounds 2.0 mg/kg Sc, metformin 500 mg/kg lg, vs model group
Text: as §1
The animals were housed individually in wood-chip-bedded plastic cages. Germ-free and high-fat diets (Beijing Huafukang Biology Technology Co. Ltd.) were used to feed the KK^Ay mice. All the animals had free access to food and water.
as §2, §8, §3
Measurement of food and water intake: 24 hours' food and water intake were measured by gravimetry once a week. It should be paid attention to recycling leakage of small forage into the feed box to ensure the accuracy of food intake.
Determination of body weight: The body weight of mice was measured and recorded once a week.
Results are shown as means±SD. Statistical analysis data were analyzed by using SPSS 10.0 software. Data were evaluated with analysis of variance.

[8] = 2.0 mg/kg BW Sc daily, vs model group

Row | Compound | descending rates of blood glucose [1] [%] | muscle glycogen level [4] | glycemia (fasting tail blood glucose), hypoglycemic activity [5, 8] | anti-hyperglycemia effect, compounds compared with each other [5] | also measured
1 | CC(=O)OC1C(OC(=O)/C=C\c2ccc(C)cc2)C(C)OC(OC(=O)[C@@H]2CC(C)(C)C[C@@H]3C2[C@H](O)C[C@]2(C)C3C=C[C@@H]3[C@@]4(C)CC[C@H](OC5OC(C(=O)O)C(O)C(OC6OCC(O)C(O)C6O)C5OC5OC(CO)C(O)C(O)C5O)[C@@](C)(C=O)[C@@H]4CC[C@]32C)C1OC1OC(C)C(O)C(O)C1O (stereo partly shown) [Compound (2), sinocrassuloside VII] | 60 | stronger efficacy in raising levels muscle glycogen | then followed by Compound (2), Compound (4), Compound (3) and Compound (7) | strongest anti-hyperglycemia effect | anti-hyperglycemia efficacy compared with glucobay ([2]; 4.0 mg/kg Sc vs glucobay 20 mg/kg lg, 2 weeks): stronger than glucobay; glycemia level ([2]; 4.0 mg/kg Sc, after 2 weeks, vs model group): significantly decreased; effect on glycogen levels and GSP levels compared with glucobay [3]: better effect on up-regulating of glycogen levels and down-regulating of GSP levels; also recorded: superior to that of glucobay; also recorded: stronger than glucobay; glycemia level [6]: decreased much obviously
2 | COC(=O)C1OC(O[C@H]2CC[C@]3(C)[C@H]4C=CC5[C@@H]6CC(C)(C)C[C@@H](C(=O)OC7OC(C)C(OC(=O)/C=C/c8ccc(C)cc8)C(OC(C)=O)C7OC7OC(C)C(O)C(O)C7O)C6[C@H](O)C[C@@]5(C)[C@]4(C)CC[C@H]3[C@]2(C)C=O)C(OC2CC(CO)C(O)C(O)C2O)C(OC2OCC(O)C(O)C2O)C1O (stereo partly shown) [Compound (3), sinocrassuloside VIII] | 60 | weaker efficacy in raising level of muscle glycogen which had no statistical significant difference compared with that of the model group | then followed by Compound (2), Compound (4), Compound (3) and Compound (7) | followed by Compound (3) and (4) (cis-trans-isomers), and Compound (7) | 
3 | CN(C)C(=N)N=C(N)N [metformin, reference compound] |  |  |  |  | food intake [7]: decreased obviously; glycemic level after drug withdrawal ([1]; KK^Ay mice, 2 weeks after stopping 2-week medication, vs model (untreated) group): rebounded to a high level which showed no significant difference compared with that of the model group
4 | sinocrassuloside XII [Compound (7)] |  |  | then followed by Compound (2), Compound (4), Compound (3) and Compound (7) | followed by Compound (3) and (4) (cis-trans-isomers), and Compound (7) | 
5 | sinocrassuloside XIII [Compound (8)] |  |  |  | no significant effect of anti-hyperglycemia compared with that of the other compounds | glycemia (fasting tail blood glucose), hypoglycemic activity ([5]; 2.0 mg/kg BW Sc daily, vs model group, 2 mg/kg): weakest hypoglycemic activity which has no significant difference compared with that of the model group; also recorded: only the trend of anti-hyperglycemia activity, but showed no statistical difference; glycemia (fasting tail blood glucose) ([5]; 2.0 mg/kg BW Sc daily, after 2 weeks, vs model group): Significant differences appeared
